Calls of active or inactive are those of the source.
How the values were obtained:
Estrogen receptor [1] = biological target: T1, Estrogen receptor (Homo sapiens, UniProt P03372); experiment: blockers of SRC-3 recruitment to ERα – biochemical, ELISA, streptavidin-HRP readout, orthogonal assay, confirmation (AID 1079)
T1 sequence (P03372 whole entry): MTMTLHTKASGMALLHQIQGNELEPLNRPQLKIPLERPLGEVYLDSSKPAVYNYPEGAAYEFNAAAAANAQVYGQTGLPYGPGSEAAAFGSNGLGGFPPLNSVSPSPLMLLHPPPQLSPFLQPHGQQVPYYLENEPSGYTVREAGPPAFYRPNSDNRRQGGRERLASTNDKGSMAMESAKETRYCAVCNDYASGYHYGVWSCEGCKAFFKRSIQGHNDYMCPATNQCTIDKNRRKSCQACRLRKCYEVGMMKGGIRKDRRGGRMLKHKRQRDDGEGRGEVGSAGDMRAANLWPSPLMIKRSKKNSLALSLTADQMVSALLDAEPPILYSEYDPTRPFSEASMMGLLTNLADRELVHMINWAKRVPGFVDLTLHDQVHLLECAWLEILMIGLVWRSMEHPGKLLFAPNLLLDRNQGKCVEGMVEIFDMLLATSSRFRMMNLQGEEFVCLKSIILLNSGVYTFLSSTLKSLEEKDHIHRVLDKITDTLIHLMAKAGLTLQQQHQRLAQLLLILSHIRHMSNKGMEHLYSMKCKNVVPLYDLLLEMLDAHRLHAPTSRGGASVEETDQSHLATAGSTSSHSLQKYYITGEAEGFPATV

[2] = biological target: T2, Neuropeptide Y receptor type 1 (Homo sapiens, UniProt P25929); experiment: Fluorescence-based dose response cell-based high-throughput screening assay for agonists of NPY-Y1. [Related pubchem assays: 1697 (Screening assay (NPY-Y1 agonists).), 1359 (Screening assay (NPY-Y2 potentiators or agonists).), 1304 (Screening assay (NPY-Y1 potentiators or agonists).), 1704 (Screening assay (CNGC inhibitors).), 1791 (Summary AID.)]; type: functional
T2 sequence (P25929 whole entry): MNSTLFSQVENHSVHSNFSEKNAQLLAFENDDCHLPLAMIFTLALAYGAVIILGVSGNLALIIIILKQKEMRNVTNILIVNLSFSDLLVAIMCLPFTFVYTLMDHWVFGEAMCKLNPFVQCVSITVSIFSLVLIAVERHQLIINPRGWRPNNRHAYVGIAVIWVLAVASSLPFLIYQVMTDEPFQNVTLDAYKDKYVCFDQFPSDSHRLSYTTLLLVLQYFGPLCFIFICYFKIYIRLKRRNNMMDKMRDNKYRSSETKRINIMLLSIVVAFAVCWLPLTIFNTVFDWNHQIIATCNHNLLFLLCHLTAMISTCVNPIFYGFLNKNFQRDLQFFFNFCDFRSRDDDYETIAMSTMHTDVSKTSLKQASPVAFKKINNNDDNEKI

HEK293 [3] = experiment: Fluorescence-based counterscreen for potentiators or agonists of NPY-Y1: cell-based high-throughput dose response assay for inhibitors of cyclic nucleotide gated ion channel (CNGC) activity. In this assay, the parental HEK293 cell line transfected with a cyclic-nucleotide gated ion channel (CNGC)-based cAMP sensor is used to measure inhibition of isoproterenol-induced CNGC …; type: functional; settings: Homo sapiens
[4] = biological target: T3, Neuropeptide Y receptor type 2 (Homo sapiens, UniProt P49146); experiment: Fluorescence-based counterscreen for agonists of NPY-Y1: cell-based high-throughput dose response assay for agonists of NPY-Y2.; type: functional
T3 sequence (P49146 whole entry, the tested form may be a part): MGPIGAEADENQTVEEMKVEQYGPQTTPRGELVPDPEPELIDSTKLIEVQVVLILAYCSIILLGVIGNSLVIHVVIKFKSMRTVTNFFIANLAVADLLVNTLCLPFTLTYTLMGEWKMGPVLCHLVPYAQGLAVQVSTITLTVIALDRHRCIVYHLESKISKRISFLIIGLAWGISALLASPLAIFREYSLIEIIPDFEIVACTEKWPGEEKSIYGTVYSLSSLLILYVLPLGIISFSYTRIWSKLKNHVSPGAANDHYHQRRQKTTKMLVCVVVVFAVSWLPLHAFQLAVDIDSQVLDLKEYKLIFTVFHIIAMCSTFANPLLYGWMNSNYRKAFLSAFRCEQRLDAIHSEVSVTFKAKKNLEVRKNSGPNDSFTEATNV

Estrogen receptor [5] = biological target: T1, Estrogen receptor; experiment: ERα coactivator recruitment enhancers – biochemical, TR-FRET, ERα LBD, dose response (AID 737)
HeLa = experiment: viability loss in HeLa cells – cell-based, 24 h, cherry-picked samples, cytotoxicity control, dose response (AID 504726); type: functional; settings: Homo sapiens;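 also: potency for cytotoxicity as loss of luminescence signal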
[6] = system: Streptococcus sp. 'group A'; experiment: Streptococcus pyogenes SK(-)GAS viability under kanamycin – luminescence, BacTiterGlo, confirmation, counter-screen for streptokinase expression inhibitor project, dose response (AID 1900); type: functional, organism-based
[7] = Fluorescence Cell-Based Dose Response to Identify Inhibitors of Thrombin Receptor-Activating Peptide SFLLRN-Mediated P-Selectin Induction on Platelets. [Related pubchem assays: 1663 (Primary HTS), 1889 (retest at dose ), 1891 (counterscreen), 1678 (Project Summary)]; type: functional
Streptococcus = experiment: GAS UMAA2166 growth inhibition – luminescence, BacTiterGlo, counter-screen for streptokinase expression inhibitor project, dose response (AID 1915); type: functional, organism-based;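 also: potency for reduction of bacterial viability or growth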
[8] = Luminescence Cell-Based Dose Confirmation HTS to Identify Inhibitors of Platelet Dense Granule Release. [Related pubchem assays: 1663 (Primary HTS), 1678 (Summary of Project)]; type: functional
[9] = biological target: T3, Neuropeptide Y receptor type 2; experiment: Fluorescence-based cell-based high-throughput dose response assay for agonists of NPY-Y2. [Related pubchem assays: 1703 (Screening assay (CNGC inhibitors).), 1359 (Screening assay (NPY-Y2 potentiators or agonists).), 1304 (Screening assay (NPY-Y1 potentiators or agonists).), 1710 (Screening assay (NPY-Y2 agonists).), 1791 (Summary AID.)]; type: functional
[10] = biological target: T2, Neuropeptide Y receptor type 1; experiment: Fluorescence-based counterscreen for agonists of NPY-Y2: cell-based high-throughput dose response assay for agonists of NPY-Y1.; type: functional
[11] = biological target: T4, Eukaryotic translation initiation factor 2-alpha kinase 3 (Homo sapiens, UniProt Q9NZJ5); experiment: Dose response cell-based high-throughput screening assay to measure PERK inhibition. [Related pubchem assays: 1416 ]; type: functional
T4 sequence (Q9NZJ5 whole entry): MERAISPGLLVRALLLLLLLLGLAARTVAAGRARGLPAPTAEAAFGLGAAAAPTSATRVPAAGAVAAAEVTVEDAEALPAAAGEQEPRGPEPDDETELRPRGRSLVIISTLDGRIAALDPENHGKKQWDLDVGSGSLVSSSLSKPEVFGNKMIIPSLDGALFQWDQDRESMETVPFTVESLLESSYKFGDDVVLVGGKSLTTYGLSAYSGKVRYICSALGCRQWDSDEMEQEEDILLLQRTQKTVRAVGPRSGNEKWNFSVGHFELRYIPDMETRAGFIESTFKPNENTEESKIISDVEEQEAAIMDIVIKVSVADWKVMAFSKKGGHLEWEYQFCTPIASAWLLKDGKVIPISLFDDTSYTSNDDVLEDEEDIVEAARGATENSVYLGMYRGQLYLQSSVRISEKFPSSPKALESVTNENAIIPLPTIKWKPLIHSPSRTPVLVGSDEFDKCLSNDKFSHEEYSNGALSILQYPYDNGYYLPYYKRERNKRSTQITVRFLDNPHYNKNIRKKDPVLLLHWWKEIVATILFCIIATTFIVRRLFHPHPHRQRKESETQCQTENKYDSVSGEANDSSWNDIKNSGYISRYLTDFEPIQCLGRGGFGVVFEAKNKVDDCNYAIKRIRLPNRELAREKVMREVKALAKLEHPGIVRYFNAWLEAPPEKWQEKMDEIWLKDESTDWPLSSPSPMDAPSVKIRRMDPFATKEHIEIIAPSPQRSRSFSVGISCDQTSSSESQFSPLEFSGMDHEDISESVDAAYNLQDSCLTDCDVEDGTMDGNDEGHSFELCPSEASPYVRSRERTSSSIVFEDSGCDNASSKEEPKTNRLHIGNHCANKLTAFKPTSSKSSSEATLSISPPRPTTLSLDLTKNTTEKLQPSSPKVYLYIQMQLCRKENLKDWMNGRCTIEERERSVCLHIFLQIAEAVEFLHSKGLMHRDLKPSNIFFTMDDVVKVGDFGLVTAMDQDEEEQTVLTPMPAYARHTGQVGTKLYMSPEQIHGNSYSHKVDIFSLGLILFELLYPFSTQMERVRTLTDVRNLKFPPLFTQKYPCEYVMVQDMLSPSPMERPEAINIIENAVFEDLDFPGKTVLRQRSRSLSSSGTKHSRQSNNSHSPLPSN

HEK293 [12] = experiment: Fluorescence-based counterscreen for potentiators or agonists of NPY-Y2: cell-based high-throughput dose response assay to identify inhibitors of cyclic nucleotide gated ion channel (CNGC) activity. In this assay, the parental HEK293 cell line transfected with a cyclic-nucleotide gated ion channel (CNGC)-based cAMP sensor is used to measure inhibition of isoproterenol-induced CNGC activity by test compound.; type: functional; settings: Homo sapiens
[13] = biological target: T4, Eukaryotic translation initiation factor 2-alpha kinase 3; experiment: Counterscreen assay for PERK inhibitors: Dose response cell-based high throughput screening assay to measure inhibition of PERK at 6 hours. [Related pubchem assays: 1522, 1416 ]; type: functional
[14] = biological target: Dual specificity protein phosphatase 3 (Homo sapiens, UniProt P51452); experiment: inhibition constants for human DUSP3 – biochemical, colorimetric, SAR follow-up (AID 2004)
[15] = HEK-293T cell viability reduction – luminescence, B-cell screen hits, cytotoxicity control for BCR NF-kB inhibitor project, dose response (AID 489021); type: functional, cell-based;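 also: HEK-293T cells carrying an NF-kB luciferase reporter; cells exposed to compound for about 14 hours before viability readout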
[16] = biological target: Polyadenylate-binding protein 1 (Homo sapiens, UniProt P11940); experiment: blockers of PABP interaction with poly(A) – biochemical, fluorescence polarization, […] (AID 2014)
[17] = biological target: Luciferin 4-monooxygenase (Photinus pyralis, UniProt P08659); experiment: inhibition of purified Photinus pyralis luciferase – biochemical, luminescence, dose response (AID 1891)
Chain of Luciferin 4-monooxygenase (P08659 whole entry): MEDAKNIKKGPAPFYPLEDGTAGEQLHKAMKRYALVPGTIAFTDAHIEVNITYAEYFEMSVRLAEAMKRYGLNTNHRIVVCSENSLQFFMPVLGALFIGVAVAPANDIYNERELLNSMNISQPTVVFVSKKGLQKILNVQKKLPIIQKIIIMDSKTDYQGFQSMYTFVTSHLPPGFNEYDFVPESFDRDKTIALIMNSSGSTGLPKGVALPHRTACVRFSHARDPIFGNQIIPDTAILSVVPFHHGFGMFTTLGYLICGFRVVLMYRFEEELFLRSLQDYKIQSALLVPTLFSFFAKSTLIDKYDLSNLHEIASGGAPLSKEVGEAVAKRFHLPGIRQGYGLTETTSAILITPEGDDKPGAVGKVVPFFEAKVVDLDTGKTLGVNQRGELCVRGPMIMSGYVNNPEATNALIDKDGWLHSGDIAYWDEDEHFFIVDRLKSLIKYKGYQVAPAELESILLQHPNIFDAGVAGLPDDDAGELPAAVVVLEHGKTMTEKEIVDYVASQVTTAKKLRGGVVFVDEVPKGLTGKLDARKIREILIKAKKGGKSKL

[18] = biological target: Eukaryotic translation initiation factor 4H (Homo sapiens, UniProt Q15056); experiment: eIF4H binding inhibition – biochemical, uHTS, fluorescence polarization, translation initiation inhibitor project, primary screen (AID 2012)
Mucolipin-3 = Mucolipin-3 (Homo sapiens, UniProt Q8TDD5); experiment: Dose response cell-based high-throughput screening assay for agonists of the transient receptor potential channel ML3 (TRPML3). [Related pubchem assays: 1526, 1424, 1448 ]; type: functional
Ion channel NompC = Ion channel NompC (Danio rerio, UniProt Q7T1G6); experiment: Fluorescence counterscreen assay for TRPML3 agonists: dose response cell-based high-throughput screening assay to identify agonists of the transient receptor potential channel N1 (TRPN1). [Related pubchem assays: 1526, 1424, 1448 ]; type: functional
X-box-binding protein 1 = X-box-binding protein 1 (Homo sapiens, UniProt P17861); type: functional, Cricetulus griseus;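 also: confirmatory dose-response counter-screen serving a CHOP assay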
[19] = biological target: DNA damage-inducible transcript 3 protein (Mus musculus, UniProt P35639); type: functional, Cricetulus griseus
Chain of DNA damage-inducible transcript 3 protein (P35639 whole entry): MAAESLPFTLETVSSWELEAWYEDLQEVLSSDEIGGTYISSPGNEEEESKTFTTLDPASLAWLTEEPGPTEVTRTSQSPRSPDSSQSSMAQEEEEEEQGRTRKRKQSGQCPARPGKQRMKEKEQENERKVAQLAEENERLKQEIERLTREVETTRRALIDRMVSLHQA

HEK293 [20] = experiment: cells; type: functional, cell-based; settings: Homo sapiens
HEK293 [21] = experiment: inhibition of NOD1-driven NF-kB reporter – cell-based, luminescence, uHTS, primary screen (AID 1578); type: functional; settings: Homo sapiens
[22] = biological target: T5, Nucleotide-binding oligomerization domain-containing protein 2 (Homo sapiens, UniProt Q9HC29); experiment: inhibition of NOD2-driven NF-kB reporter – cell-based, luminescence, uHTS, HEK293 (AID 1566); type: functional
T5 sequence (Q9HC29 whole entry, the tested form may be a part): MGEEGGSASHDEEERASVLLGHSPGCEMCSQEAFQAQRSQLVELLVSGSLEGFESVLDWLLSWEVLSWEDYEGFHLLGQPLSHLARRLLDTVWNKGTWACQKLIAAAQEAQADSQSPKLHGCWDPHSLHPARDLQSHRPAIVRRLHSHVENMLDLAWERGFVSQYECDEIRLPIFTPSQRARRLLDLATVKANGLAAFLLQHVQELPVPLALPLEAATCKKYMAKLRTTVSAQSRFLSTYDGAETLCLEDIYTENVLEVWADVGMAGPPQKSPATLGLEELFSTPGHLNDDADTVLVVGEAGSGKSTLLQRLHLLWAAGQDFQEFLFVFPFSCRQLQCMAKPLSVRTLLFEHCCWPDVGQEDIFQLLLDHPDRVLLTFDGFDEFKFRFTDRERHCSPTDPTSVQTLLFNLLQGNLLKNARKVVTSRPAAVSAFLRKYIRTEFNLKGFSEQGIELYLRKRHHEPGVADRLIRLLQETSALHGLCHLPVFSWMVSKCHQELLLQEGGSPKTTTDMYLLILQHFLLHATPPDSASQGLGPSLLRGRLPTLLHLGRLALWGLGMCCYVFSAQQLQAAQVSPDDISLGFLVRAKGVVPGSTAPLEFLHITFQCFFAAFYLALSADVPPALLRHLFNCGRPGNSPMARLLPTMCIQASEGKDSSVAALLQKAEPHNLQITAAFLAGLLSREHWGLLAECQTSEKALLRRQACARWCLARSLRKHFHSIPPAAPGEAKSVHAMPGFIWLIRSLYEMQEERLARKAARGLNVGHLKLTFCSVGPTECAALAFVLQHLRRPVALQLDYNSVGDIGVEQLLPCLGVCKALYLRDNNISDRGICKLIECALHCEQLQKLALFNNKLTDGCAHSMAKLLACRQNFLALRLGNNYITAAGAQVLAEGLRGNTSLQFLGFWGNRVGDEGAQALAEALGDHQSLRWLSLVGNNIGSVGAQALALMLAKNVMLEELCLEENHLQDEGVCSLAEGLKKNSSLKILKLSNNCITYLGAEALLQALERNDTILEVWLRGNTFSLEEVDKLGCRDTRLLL

Tumor necrosis factor = Tumor necrosis factor (Homo sapiens, UniProt P01375); experiment: analog potency on TNFa NF-kB signaling – cell-based, revised, SAR follow-up (AID 2337); type: functional
Chain of Tumor necrosis factor (P01375 whole entry): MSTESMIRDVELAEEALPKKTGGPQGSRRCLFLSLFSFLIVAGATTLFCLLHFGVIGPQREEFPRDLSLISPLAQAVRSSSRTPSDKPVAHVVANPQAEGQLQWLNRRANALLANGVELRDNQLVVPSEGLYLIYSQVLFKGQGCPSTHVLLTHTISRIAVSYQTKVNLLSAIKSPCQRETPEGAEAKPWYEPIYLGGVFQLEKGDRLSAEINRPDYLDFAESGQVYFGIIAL

HEK293 [23] = experiment: cells; type: functional, cell-based; settings: Homo sapiens; remark: listed apart in the source
[24] = biological target: T6, Nucleotide-binding oligomerization domain-containing protein 1 (Homo sapiens, UniProt Q9Y239); experiment: blockers of NOD1 pathway activity – revised, SAR follow-up (AID 2333); type: functional
T6 sequence (Q9Y239 whole entry): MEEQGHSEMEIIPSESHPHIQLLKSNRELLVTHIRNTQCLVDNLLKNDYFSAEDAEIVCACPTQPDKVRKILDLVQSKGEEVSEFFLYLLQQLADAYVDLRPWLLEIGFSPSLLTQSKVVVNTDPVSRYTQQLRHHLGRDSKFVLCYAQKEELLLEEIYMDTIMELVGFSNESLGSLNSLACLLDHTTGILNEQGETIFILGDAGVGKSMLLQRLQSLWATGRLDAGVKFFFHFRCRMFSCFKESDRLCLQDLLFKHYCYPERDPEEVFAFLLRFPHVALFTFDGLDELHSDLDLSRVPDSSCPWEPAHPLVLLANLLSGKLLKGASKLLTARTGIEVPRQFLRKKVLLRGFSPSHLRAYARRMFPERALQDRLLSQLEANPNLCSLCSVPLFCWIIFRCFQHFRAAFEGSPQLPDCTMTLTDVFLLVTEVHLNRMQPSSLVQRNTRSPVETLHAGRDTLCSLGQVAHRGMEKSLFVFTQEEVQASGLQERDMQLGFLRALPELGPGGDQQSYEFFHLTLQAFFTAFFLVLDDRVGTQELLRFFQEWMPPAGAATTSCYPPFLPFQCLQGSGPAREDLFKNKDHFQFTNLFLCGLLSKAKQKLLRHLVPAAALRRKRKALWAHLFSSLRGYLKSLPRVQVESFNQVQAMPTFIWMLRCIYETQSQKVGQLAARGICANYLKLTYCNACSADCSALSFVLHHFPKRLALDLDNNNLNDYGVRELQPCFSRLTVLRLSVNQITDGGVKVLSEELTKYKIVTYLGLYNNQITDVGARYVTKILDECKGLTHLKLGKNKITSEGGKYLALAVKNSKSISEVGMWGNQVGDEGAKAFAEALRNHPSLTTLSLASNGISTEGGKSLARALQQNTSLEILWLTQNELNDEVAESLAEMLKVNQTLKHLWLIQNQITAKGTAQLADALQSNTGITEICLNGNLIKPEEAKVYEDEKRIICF

[25] = biological target: T5, Nucleotide-binding oligomerization domain-containing protein 2; experiment: PubChem AID 2334; type: functional
HEK293 [26] = experiment: cells; type: functional, cell-based; settings: Homo sapiens; remark: listed apart in the source
HEK293 [27] = experiment: cells; settings: Homo sapiens
HEK293 [28] = experiment: NOD2 signaling inhibitors in MDP-stimulated cells, cell-based, uHTS, luminescence (AID 2001); type: functional; settings: Homo sapiens
[29] = biological target: Mothers against decapentaplegic homolog 3 (Homo sapiens, UniProt P84022); experiment: blockers of Smad3 complex formation in lysate – cell lysate, secondary confirmation, chemiluminescent ELISA, HEK293 lysate, dose response (AID 1058); type: functional
[30] = biological target: Transitional endoplasmic reticulum ATPase (Homo sapiens, UniProt P55072); experiment: p97 ATPase inhibitors, dose response, biochemical (AID 1534)
Chain of Transitional endoplasmic reticulum ATPase (Homo sapiens, UniProt P55072) (P55072 whole entry): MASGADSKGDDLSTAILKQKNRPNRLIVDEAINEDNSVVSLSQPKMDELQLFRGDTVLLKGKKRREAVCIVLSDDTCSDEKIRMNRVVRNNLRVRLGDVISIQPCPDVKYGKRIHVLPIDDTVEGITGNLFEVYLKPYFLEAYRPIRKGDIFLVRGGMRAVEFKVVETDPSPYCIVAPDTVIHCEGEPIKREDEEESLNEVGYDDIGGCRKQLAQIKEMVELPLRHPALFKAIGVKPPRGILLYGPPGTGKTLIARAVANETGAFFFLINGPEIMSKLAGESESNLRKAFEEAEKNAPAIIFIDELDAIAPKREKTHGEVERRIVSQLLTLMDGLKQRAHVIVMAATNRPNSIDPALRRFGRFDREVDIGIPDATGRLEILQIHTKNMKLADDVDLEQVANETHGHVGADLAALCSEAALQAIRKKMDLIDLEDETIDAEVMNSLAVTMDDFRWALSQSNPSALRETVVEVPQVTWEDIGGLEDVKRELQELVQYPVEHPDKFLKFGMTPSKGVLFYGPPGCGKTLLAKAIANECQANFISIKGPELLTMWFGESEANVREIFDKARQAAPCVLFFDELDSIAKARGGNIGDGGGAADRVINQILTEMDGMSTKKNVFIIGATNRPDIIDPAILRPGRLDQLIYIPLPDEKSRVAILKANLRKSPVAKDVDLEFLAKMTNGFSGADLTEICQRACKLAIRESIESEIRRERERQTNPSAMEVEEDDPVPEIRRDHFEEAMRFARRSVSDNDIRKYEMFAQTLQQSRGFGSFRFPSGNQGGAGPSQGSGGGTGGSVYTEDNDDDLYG

[31] = biological target: Transitional endoplasmic reticulum ATPase (Homo sapiens, UniProt P55072, C522A); experiment: C522A mutant p97 ATPase inhibitors, dose response, counter-screen for p97 inhibitor project, biochemical, luminescence (AID 1544)
[32] = biological target: Eukaryotic translation initiation factor 4E (Mus musculus, UniProt P63073); experiment: blockers of eIF4G binding by eIF4E – biochemical, TR-FRET, dose response (AID 855); type: functional;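 also: potency for disrupting eIF4E binding to eIF4GI seen as loss of FRET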
Chain of Eukaryotic translation initiation factor 4E (P63073 whole entry): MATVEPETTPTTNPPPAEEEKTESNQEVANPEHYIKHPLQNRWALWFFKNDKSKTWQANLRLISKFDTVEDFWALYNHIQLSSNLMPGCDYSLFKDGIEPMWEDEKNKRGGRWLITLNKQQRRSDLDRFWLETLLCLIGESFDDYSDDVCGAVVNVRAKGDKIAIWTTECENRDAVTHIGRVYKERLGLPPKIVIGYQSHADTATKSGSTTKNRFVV

O=C(CCCCCn1c(=S)[nH]c2ccccc2c1=O)N1CCN(c2ncccn2)CC1
IC50 (Estrogen receptor [1]): 0.12 µM (not active)

Cc1ccccc1OCC(O)CN1CCN(CC(O)COc2ccccc2C)CC1 (stereo unspecified)
EC50 [2]: > 35.4 µM (not active)
IC50 (HEK293 [3]): 12 µM (not active)
EC50 [4]: > 35.4 µM (not active)

CC(C)CCNC(=O)COc1ccc2c3c(c(=O)oc2c1)CCC3
EC50 (Estrogen receptor [5]): 13.3 µM (not active)

Oc1nc2c(s1)C=Nc1ccccc1N2
AC50 (HeLa): 71.5 µM (active)
EC50 [6]: > 150 µM (not active)
EC50 [7]: < 0.3 µM (active)
EC50 (Streptococcus): > 150 µM (not active)
EC50 [8]: 1.17 µM (active)

COCCOC(=O)C(CC(=O)O)NCc1ccco1 (stereo unspecified)
EC50 [9]: > 35.4 µM (not active)
EC50 [10]: > 35.4 µM (not active)
EC50 [11]: > 55.7 µM (not active)
EC50 (HEK293 [12]): > 35.4 µM (not active)
EC50 [13]: > 55.7 µM (not active)

CC(C)=C1C(=O)NN(c2ccccc2)C1=O
Ki [14]: 71 µM (inactive)

CCCCn1c2c(c(=N)c3ccccc31)CCC2
IC50 [15]: > 80 µM (inactive)
IC50 [16]: 3.5 µM (active)
EC50 [8]: 1.25 µM (active)
EC50 [17]: > 112 µM (not active)
IC50 [18]: > 100 µM (inactive)

COc1ccc(C(C(=O)NC2CCCC2)N(Cc2ccccc2)C(=O)c2nsc(Cl)c2Cl)cc1 (stereo unspecified)
EC50 (Mucolipin-3): > 29.9 µM (not active)
EC50 (Ion channel NompC): > 29.9 µM (not active)

Cc1cc(C)c2nc(-c3ccccn3)cc(C(=O)Nc3cc(C)on3)c2c1
Absolute IC50 (XBP1) (X-box-binding protein 1): 10 µM
Absolute IC50 (CHOP) [19]: 10 µM

CCCCCCCn1c(=O)c(C(=O)Nc2cnccn2)c(O)c2ccccc21
IC50 (HEK293 [20]): > 20 µM (inactive)
EC50 (HEK293 [21]): 6.35 µM (active)
EC50 [22]: 7.83 µM (active)
IC50 (Tumor necrosis factor): 3.18 µM (active)
EC50 [6]: 2.88 µM (active)
IC50 (HEK293 [23]): > 20 µM (inactive)
IC50 [24]: 5.6 µM (active)
IC50 [25]: 8.05 µM (active)
EC50 (Streptococcus): 6.65 µM (active)
IC50 (HEK293 [26]): > 20 µM (inactive)
IC50 (HEK293 [27]): > 20 µM (inactive)
IC50 (HEK293 [28]): 6.85 µM (active)

O=c1cc2oc3cc(O)c(O)cc3c(-c3ccccc3)c-2cc1O
IC50 [29]: < 1.25 µM (not active)

CN(C)[C@@H]1C(O)=C(C(N)=O)C(=O)[C@@]2(O)C(O)=C3C(=O)c4c(O)cccc4[C@@](C)(O)[C@H]3[C@H](O)[C@@H]12 [OXYTETRACYCLINE]
IC50 [30]: > 50 µM (not active)
IC50 [31]: > 50 µM (not active)
IC50 [32]: 50 µM (inactive)

— ChEMBL document CHEMBL1201862, “PubChem BioAssay data set” (2004)
